Results as given in ChEMBL document CHEMBL3886852, “Triazolo compounds as PDE10 inhibitors” (2016).

Target: cAMP and cAMP-inhibited cGMP 3',5'-cyclic phosphodiesterase 10A (Homo sapiens, UniProt Q9Y233)
Test: Scintillation Proximity Assay: The human PDE10A full length assay was performed in 96-well micro titer plates. The reaction mixture of 50 μl contained 20 mM HEPES pH=7.5/10 mM MgCl2/0.05 mg/ml BSA (Sigma cat. # A-7906), 50 nM cGMP (Sigma, cat. # G6129) and 50 nM [3H]-cGMP (GE Healthcare, cat. # TRK392 S.A. 13.2 Ci/mmol), 3.75 ng/well PDE10A enzyme (Enzo Life Science, Lausen, Switzerland cat # SE-534) with or without a specific test compound. A range of concentrations of the potential inhibitor was used to generate data for calculating the concentration of inhibitor resulting in 50% of the effect (e.g. IC50, the concentration of the competitor inhibiting PDE10A activity by 50%). Non-specific activity was tested without the enzyme. The reaction was initiated by the addition of the substrate solution (cGMP and [3H]-cGMP) and allowed to progress for 20 minutes at room temperature. The reaction was terminated by adding 25 μl of YSi-SPA scintillation beads (GE Healthcare, cat. # RPNQ0150) in 18 mM zinc sulphate solution (stop reagent). After 1 h under shaking, the plate was centrifuged one minute at 170 g to allow beads to settle. Afterwards, radioactive counts were measured on a Perkin Elmer Top-Count Scintillation plate reader.

Sequence of cAMP and cAMP-inhibited cGMP 3',5'-cyclic phosphodiesterase 10A (Q9Y233 whole entry): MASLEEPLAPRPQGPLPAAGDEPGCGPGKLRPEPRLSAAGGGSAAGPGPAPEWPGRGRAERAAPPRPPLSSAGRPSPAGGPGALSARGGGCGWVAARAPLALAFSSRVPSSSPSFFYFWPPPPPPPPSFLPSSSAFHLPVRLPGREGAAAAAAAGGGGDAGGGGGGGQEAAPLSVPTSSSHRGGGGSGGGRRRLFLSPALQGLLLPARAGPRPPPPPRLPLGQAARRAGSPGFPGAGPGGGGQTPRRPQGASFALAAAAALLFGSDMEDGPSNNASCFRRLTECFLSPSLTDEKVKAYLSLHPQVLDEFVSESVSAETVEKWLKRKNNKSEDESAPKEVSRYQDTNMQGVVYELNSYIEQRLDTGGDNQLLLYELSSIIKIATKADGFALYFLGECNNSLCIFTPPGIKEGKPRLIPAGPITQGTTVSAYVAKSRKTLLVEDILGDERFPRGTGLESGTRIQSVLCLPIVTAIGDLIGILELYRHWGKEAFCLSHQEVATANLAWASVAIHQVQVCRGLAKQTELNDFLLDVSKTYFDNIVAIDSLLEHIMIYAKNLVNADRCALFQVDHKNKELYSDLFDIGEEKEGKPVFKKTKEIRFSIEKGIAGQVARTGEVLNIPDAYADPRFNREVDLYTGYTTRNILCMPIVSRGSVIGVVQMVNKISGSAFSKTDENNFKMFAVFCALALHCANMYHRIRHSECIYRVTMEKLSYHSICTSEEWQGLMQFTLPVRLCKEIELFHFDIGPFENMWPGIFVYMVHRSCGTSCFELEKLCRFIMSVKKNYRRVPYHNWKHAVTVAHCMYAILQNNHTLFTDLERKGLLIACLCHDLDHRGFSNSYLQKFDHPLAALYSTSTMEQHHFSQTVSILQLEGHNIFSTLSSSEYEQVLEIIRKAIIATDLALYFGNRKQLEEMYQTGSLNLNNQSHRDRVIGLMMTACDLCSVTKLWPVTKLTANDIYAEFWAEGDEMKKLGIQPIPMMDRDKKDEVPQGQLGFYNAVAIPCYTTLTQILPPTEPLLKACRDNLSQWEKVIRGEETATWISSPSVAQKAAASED

SMILES	IC50
Cc1c(C#N)ccc2nc(CCc3nc(N4CCCC4)nn3C)nn12	3.47 nM
Cn1nc(N2CCCC2)nc1CCc1nc2c(Br)cc(C(F)(F)F)cn2n1	36.5 nM
Cc1ccn2nc(CCc3nc(N4CCCC4)nn3C)nc2c1C	4.49 nM
Cc1ncc(C)n2nc(CCc3nc(N(C)C)nn3C)nc12	334 nM
Cc1ncc(C)n2nc(CCc3nc(N4CCCC4)n(C)n3)nc12	2.68 nM
